The target of assay [1] is T1, human α1b-adrenoceptor (Homo sapiens, UniProt P35368).
T1 construct: expressed in transfected cells
T1 sequence (P35368 1-520): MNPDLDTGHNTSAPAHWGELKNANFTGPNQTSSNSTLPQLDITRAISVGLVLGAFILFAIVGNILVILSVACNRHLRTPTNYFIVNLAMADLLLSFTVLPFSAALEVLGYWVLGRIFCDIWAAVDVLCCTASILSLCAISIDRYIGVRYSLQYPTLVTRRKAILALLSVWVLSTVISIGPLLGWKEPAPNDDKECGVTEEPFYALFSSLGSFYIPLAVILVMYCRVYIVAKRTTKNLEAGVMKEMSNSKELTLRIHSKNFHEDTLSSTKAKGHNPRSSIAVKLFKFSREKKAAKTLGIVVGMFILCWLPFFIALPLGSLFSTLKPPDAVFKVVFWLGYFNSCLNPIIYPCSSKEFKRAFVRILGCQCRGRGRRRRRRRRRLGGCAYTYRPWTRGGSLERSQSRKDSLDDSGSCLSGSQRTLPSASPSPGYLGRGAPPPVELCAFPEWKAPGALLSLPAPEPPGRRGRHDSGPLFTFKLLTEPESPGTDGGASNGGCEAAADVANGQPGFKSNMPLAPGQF
The assay can be described thus: [3H]prazosin binding to cloned human α1-adrenoceptor subtypes (α1b). The following applies: for Ki: [3H]prazosin, CHO cell membranes, read-out: Binding affinity (Ki, nM) α1b; for α1b/5-HT1A: selectivity: ratio of Ki at α1b and Ki at 5-HT1A. The procedure:
Binding to cloned human α1-adrenoceptor subtypes was performed in membranes from CHO cells (chinese hamster ovary cells) transfected by electroporation with DNA expressing the gene encoding each α1-adrenoceptor subtype. Cloning and stable expression of the human α1-adrenoceptor gene was performed as previously described (Testa et al. Pharmacol. Comm., 6: 79–86,1995).
CHO cells were grown in suspension in Iscove's modified Dulbecco's medium, supplemented with 10% fetal calf serum and gentamicin (50 μg/ml), at 37° C. in 7% CO2 in an humidified incubator. Cells were collected by centrifugation, lised in ice-cold Tris 5 mM and EDTA 5 mM buffer (pH 7.4) and gently homogenised. Homogenates were centrifuged at 40000×g×20 min and pellets were resuspended in a small volume of ice-cold Tris 5 mM and EDTA 5 mM buffer (pH 7.4) and immediately frozen and stored at −80° C. until use.
CHO cell membranes were resuspended and incubated in 50 mM Tris, pH 7.4, with 0.2 nM [^3H]prazosin, in a final volume of 1.02 ml for 30 min at 25° C., in absence or presence of competing drugs. Non-specific binding was determined in the presence of 10 μM phentolamine. The incubation was stopped by rapid filtration through 0.2% polyethyleneimine pretreated Schleicher & Schuell GF52 filters using a Tomtec (PerkinElmer) cell harvester. The filters were washed with 3×1 ml of ice-cold Tris buffer, dried and the radioactivity was measured in a Betaplate (Wallac) liquid scintillation counter.
The inhibition of specific binding by the compounds was analysed to estimate the IC50 value by the non-linear curve-fitting program Allfit (De Lean et al. Am. J. Physiol. 235, E97-E102, 1978). The IC50 value is converted to an affinity constant (Ki) by the equation of Cheng & Prusoff (Biochem. Pharmacol. 22: 3099–3108, 1973).

The target of assay [2] is T2, post-synaptic 5-HT1A receptors (Rattus norvegicus, UniProt P19327).
T2 construct: from tissue; host or cells: whole animal, male Sprague-Dawley rat (in vivo)
T2 sequence (P19327 1-422): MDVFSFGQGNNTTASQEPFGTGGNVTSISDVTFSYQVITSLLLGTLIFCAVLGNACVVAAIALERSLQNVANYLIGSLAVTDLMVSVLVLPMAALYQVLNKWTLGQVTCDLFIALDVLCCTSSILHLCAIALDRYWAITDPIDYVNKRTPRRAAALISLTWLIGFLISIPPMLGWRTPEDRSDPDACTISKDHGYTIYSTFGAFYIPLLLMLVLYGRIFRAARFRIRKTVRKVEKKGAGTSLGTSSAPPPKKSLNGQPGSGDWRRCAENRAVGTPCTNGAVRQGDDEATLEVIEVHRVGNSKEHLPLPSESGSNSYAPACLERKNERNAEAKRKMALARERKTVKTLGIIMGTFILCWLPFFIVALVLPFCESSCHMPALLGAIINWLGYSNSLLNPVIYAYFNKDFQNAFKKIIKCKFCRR
The assay can be described thus: Inhibition of stereotypy (rhythmic forepaw treading) induced by 8-OH-DPAT in rats. Particulars: for inhibition at 0.01 mg/kg / inhibition at 0.03 mg/kg / inhibition at 0.1 mg/kg / inhibition at 0.3 mg/kg / inhibition at 1 mg/kg / inhibition at 3 mg/kg / inhibition at 10 mg/kg: rat; for inhibition at 0.01 mg/kg: 0.01 mg/kg i.v.; for inhibition at 0.03 mg/kg: 0.03 mg/kg i.v.; for inhibition at 0.1 mg/kg: 0.1 mg/kg i.v.; for inhibition at 1 mg/kg: 1 mg/kg p.o.; for inhibition at 3 mg/kg: 3 mg/kg p.o.; for inhibition at 10 mg/kg: 10 mg/kg p.o. It is filed as in vivo. The procedure: The inhibitory effect of 5-HT1A-receptor antagonists on stereotyped forepaw treading induced in rats by subcutaneous injection of 8-OH-DPAT was evaluated by the method of Tricklebank (Tricklebank et al., Eur. J. Pharmacol., 117: 15, 1985) with minor modifications as described below.
Male Sprague-Dawley rats [Crl: CD® (SD) IGS BR] weighing 150–175 g from Charles River Italia were used. The animals were housed with free access to food and water and maintained on a forced 12-hour-light/12-hour-dark cycle at 22–24° C. of temperature. On the day of the experiment, the rats were placed singly in clear plastic containers, 10–15 minutes before administration of the vehicle or compounds to be tested. For evaluation of antagonistic activity after intravenous or oral administration, the compounds were administered 1 and 4 hours before induction of stereotypy by 8-OH-DPAT (1 mg/kg subcutaneously). Observation sessions lasted 30 seconds and began 3 minutes after 8-OH-DPAT treatment and were repeated every 3 minutes over a period of 15 minutes.
The appearance of the symptom induced by postsynaptic stimulation of 5-HT1A receptors was noted, and the intensity was scored using an intensity scale in which: 0=absent, 1=equivocal, 2=present and 3=intense. Behavioural scores for treated rats were accumulated throughout the observation time (5 observation periods) and expressed as mean values of 4 rats/dose. Change in mean values of treated animals in comparison with control (vehicle) group, expressed as per-cent inhibition, was used to quantify the antagonistic activity.

Setting [3] is: after intravenous administration.
The mark [4] stands for this setting: iv, 0.3 mg/kg i.v., 1 h before 8-OH-DPAT.
[5] abbreviates: iv, 0.3 mg/kg i.v., 4 h before 8-OH-DPAT.
Setting [6] is: po, 0.3 mg/kg p.o., 1 h before 8-OH-DPAT.
Setting [7] is: po, 0.3 mg/kg p.o., 4 h before 8-OH-DPAT.

SMILES strings stand for the structures. Like-named read-outs stand apart in the source and are kept apart here.

As for `COc1ccccc1N1CCN(CC[C@H](c2ccccc2F)[C@@H](O)C2CCCCC2)CC1` [Ex. 1Y, 1-[(3R,4S)-4-cyclohexyl-4-hydroxy-3-(2-fluorophenyl)-butyl]-4-(2-methoxyphenyl)-piperazine], the Ki in assay [1] is 11 nM. Also, the α1b/5-HT1A in assay [1] came to 30. For the same compound, the “ED75 (equieffective dose inhibiting the forepaw treading by 75%)” value in assay [2] (1 h i.v.) is recorded as 1 h i.v.: ED75 = 0.038 mg/kg/; in assay [2] (1 h p.o.), 1 h p.o.: ED75 = 1.7 mg/kg/; in assay [2] (4 h i.v.), 4 h i.v.: ED75 = 0.182 mg/kg; in assay [2] (4 h p.o.), 4 h p.o.: ED75 = 2.6 mg/kg. The “potency in inhibiting forepaw treading, comparison” value is on record as “practically equipotent” in assay [2] (setting [3]) and “more potent than Ex. 5” in assay [2] (after oral administration, in particular at four hours). For the same compound, the inhibition at 0.01 mg/kg was found to be 37% in assay [2] (iv, 1 h before 8-OH-DPAT) and 11% in assay [2] (iv, 4 h before 8-OH-DPAT). Also, the inhibition at 0.03 mg/kg is 72% in assay [2] (iv, 1 h before 8-OH-DPAT) and 35% in assay [2] (iv, 4 h before 8-OH-DPAT). In addition, the inhibition at 0.1 mg/kg in assay [2] (iv, 1 h before 8-OH-DPAT) worked out at 100%; in assay [2] (iv, 4 h before 8-OH-DPAT), 65%. Also, the inhibition at 0.3 mg/kg in assay [2] (setting [4]) was determined as 100%; in assay [2] (setting [5]) it was 84%; in assay [2] (setting [6]), 18%; in assay [2] (setting [7]), 18%. Besides, the inhibition at 1 mg/kg in assay [2] (po, 1 h before 8-OH-DPAT) worked out at 58%; in assay [2] (po, 4 h before 8-OH-DPAT), 38%. In addition, the inhibition at 3 mg/kg in assay [2] (po, 1 h before 8-OH-DPAT) turned out to be 92%; in assay [2] (po, 4 h before 8-OH-DPAT), 85%.

`COc1ccccc1N1CCN(CC[C@H](c2ccccc2)[C@@H](O)C2CCCCC2)CC1` (racemic) [Ex. 5, 1-[(RS,SR)-4-Cyclohexyl-4-hydroxy-3-phenyl-butyl]-4-(2-methoxyphenyl)-piperazine, reference compound]: the Ki in assay [1] is 12 nM. The α1b/5-HT1A in assay [1] turned out to be 18. Moreover, the “ED75 (equieffective dose inhibiting the forepaw treading by 75%)” value in assay [2] was 4 h p.o.: ED75 = 4.6 mg/kg; in assay [2] (1 h i.v.) it was 1 h i.v.: ED75 = 0.032 mg/kg/; in assay [2] (1 h p.o.), 1 h p.o.: ED75 = 2.1 mg/kg/; in assay [2] (4 h i.v.), 4 h i.v.: ED75 = 0.138 mg/kg. The “potency in inhibiting forepaw treading, comparison” value in assay [2] (setting [3]) is listed as “practically equipotent”. Besides, the inhibition at 0.01 mg/kg turned out to be 41% in assay [2] (iv, 1 h before 8-OH-DPAT) and 26% in assay [2] (iv, 4 h before 8-OH-DPAT). For the same compound, the inhibition at 0.03 mg/kg in assay [2] (iv, 1 h before 8-OH-DPAT) is 82%; in assay [2] (iv, 4 h before 8-OH-DPAT), 54%. For the same compound, the inhibition at 0.1 mg/kg in assay [2] (iv, 1 h before 8-OH-DPAT) came out at 100%; in assay [2] (iv, 4 h before 8-OH-DPAT) it was 72%. For the same compound, the inhibition at 0.3 mg/kg came to 100% in assay [2] (setting [4]), 85% in assay [2] (setting [5]), 8% in assay [2] (setting [6]) and 20% in assay [2] (setting [7]). The inhibition at 1 mg/kg in assay [2] (po, 1 h before 8-OH-DPAT) was 42%; in assay [2] (po, 4 h before 8-OH-DPAT), 46%. For the same compound, the inhibition at 3 mg/kg in assay [2] (po, 1 h before 8-OH-DPAT) was found to be 90%; in assay [2] (po, 4 h before 8-OH-DPAT), 67%.

On to `COc1ccccc1N1CCN(CC[C@H](c2ccccc2F)[C@H](O)C2CCCCC2)CC1` [Ex. 2X, 1-[(3R,4R)-4-cyclohexyl-4-hydroxy-3-(2-fluorophenyl)-butyl]-4-(2-methoxyphenyl)-piperazine], for which, in assay [1], the inhibition constant (Ki) was 11 nM and the α1b/5-HT1A turned out to be 46. For the same compound, the “ED75 (equieffective dose inhibiting the forepaw treading by 75%)” value in assay [2] (1 h i.v.) is given as 1 h i.v.: ED75 = 0.041 mg/kg/. Also, the “ED75 (equieffective dose inhibiting the forepaw treading by 75%)” value in assay [2] (4 h i.v.) was 4 h i.v.: ED75 = 0.152 mg/kg. The “potency in inhibiting forepaw treading, comparison” value in assay [2] (setting [3]) is “practically equipotent”. In assay [2] (iv, 1 h before 8-OH-DPAT), this compound showed an inhibition at 0.01 mg/kg of 39%, an inhibition at 0.03 mg/kg of 65% and an inhibition at 0.1 mg/kg of 100%. Besides, in assay [2] (iv, 4 h before 8-OH-DPAT), the inhibition at 0.01 mg/kg was found to be 6%, 0.03 mg/kg produced 49% inhibition and the inhibition at 0.1 mg/kg is 63%. In assay [2] (setting [4]), the inhibition at 0.3 mg/kg came out at 100%. The compound also had an inhibition at 0.3 mg/kg in assay [2] (setting [5]) of 89%.

`COc1ccccc1N1CCN(CC[C@@H](c2ccccc2F)[C@H](O)C2CCCCC2)CC1` (racemic) [Ex. 1, 1-[(SR-RS)-4-cyclohexyl-4-hydroxy-3-(2-fluorophenyl)-butyl]-4-(2-methoxyphenyl)-piperazine]: in assay [1], the Ki was found to be 5.9 nM and the α1b/5-HT1A is listed as 45. Besides, the “ED75 (equieffective dose inhibiting the forepaw treading by 75%)” value in assay [2] (1 h p.o.) was 1 h p.o.: ED75 = 3.3 mg/kg/. Moreover, the “ED75 (equieffective dose inhibiting the forepaw treading by 75%)” value in assay [2] (4 h p.o.) was 4 h p.o.: ED75 = 4.0 mg/kg. In assay [2] (po, 1 h before 8-OH-DPAT), this compound had an inhibition at 1 mg/kg of 35%, an inhibition at 3 mg/kg of 84% and an inhibition at 10 mg/kg of 100%. In assay [2] (po, 4 h before 8-OH-DPAT), this compound registered an inhibition at 1 mg/kg of 37%, an inhibition at 3 mg/kg of 72% and an inhibition at 10 mg/kg of 96%.

As usually defined, the Ki is a measure of affinity in units of concentration, obtained from inhibition or displacement. A word on the inhibition: it is how much of the control response was suppressed. Read a high inhibition as a response far below the control.

For the origin of these results see patent US7071197B2, “N,N-disubstituted diazocycloalkanes” (Recordati S.A., priority 2002, dated 2006).
